Settings: mouse, in vivo

Cc1ccc(NC(=O)c2ccc(CN3CCN(C)CC3)cc2)cc1Nc1nccc(-c2cccnc2)n1 [Imatinib]
no significant changes: serum ALT levels | serum AST levels | serum BUN levels

COC(=O)Nc1nc2ccc(C(=O)c3ccccc3)cc2[nH]1 [Mebendazole]
no significant changes: serum ALT levels | serum AST levels | serum BUN levels

Reference: patent US20250281461A1 (The Board of Supervisors of Louisiana State University and …, priority 2021, published 2025)
